Molecules are shown by their SMILES.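 A five-concentration, 48-hour dose response in 96-well plates underlies each endpoint, interpolated linearly between surrounding concentrations. Definition used: TGI = concentration required for complete inhibition of growth.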

Here are results for 12 compounds from PubChem BioAssay (NCI).

What all share (assay): DTP human tumour cell line panel, 48 h
Experiment [1] deals with A549 NSCLC.
Experiment [2] relates to HS 578T breast.
Experiment [3] concerns OVCAR-8 ovarian.
Experiment [4] relates to OVCAR-4 ovarian.
The subject of experiment [5] is MOLT-4 leukemia.
Experiment [6] has as its system TK-10 renal.
The subject of experiment [7] is HCT-15 colon.
Experiment [8] relates to MDA-MB-435.
Experiment [9] relates to SN12C renal.
For experiment [10], the system named is SNB-75 CNS.
For experiment [11], the system named is SK-OV-3 ovarian.

Broadly, the TGI is the concentration giving total growth inhibition. In the case of `COc1ccc(C2SCC(=O)N2NC(=O)C(C)Oc2ccccc2C)cc1` (stereo unspecified), the concentration for total growth inhibition (TGI) in experiment [1] was > 100 µM; in experiment [2], > 100 µM; in [3], > 100 µM; in experiment [4] it was > 100 µM; in [5], 87.9 µM; in experiment [6], > 100 µM. The TGI in [7], in [8], in experiment [9], in experiment [10] and in experiment [11] was > 100 µM throughout.

Regarding `CN(Cc1cnc2nc(N)nc(N)c2n1)c1ccc(C(=O)NC(CCC(=O)NC(CC(P(=O)(O)O)P(=O)(O)O)C(=O)O)C(=O)O)cc1` (stereo unspecified), the TGI in [1], in experiment [2], in experiment [3], in [4], in experiment [5] and in experiment [6] was > 100 µM in each case. Besides, the TGI in experiment [7], in [8], in experiment [9], in experiment [10] and in [11] was > 100 µM throughout.

`C=Cc1nc(C#N)c(N)o1`: the TGI in experiment [1], in experiment [2], in experiment [3], in experiment [4], in experiment [5] and in experiment [6] was > 100 µM in each case. In addition, the TGI in experiment [7], in experiment [8], in experiment [9], in [10] and in experiment [11] was > 100 µM each time.

Take `O=C(N/N=C(/COc1ccccc1Cl)N=Cc1ccncc1)c1ccncc1`: the TGI in [1], in experiment [2], in experiment [3], in experiment [4], in experiment [5] and in [6] was > 100 µM throughout. For the same compound, the TGI was > 100 µM in experiment [7]; > 100 µM in experiment [8]; > 100 µM in experiment [9]; 98.7 µM in experiment [10]; > 100 µM in [11].

Consider `CCOC(=O)CCC(NC(=O)Cc1ccc(Oc2nc3ccccc3nc2-c2ccccc2)cc1)C(=O)OCC` (stereo unspecified), for which the TGI in experiment [1], in [2], in [4], in [5], in experiment [6] and in experiment [7] was > 100 µM each time. Further, the TGI in experiment [8], in experiment [9], in experiment [10] and in [11] was > 100 µM in each case.

With `COC([C@@H](OC(=O)c1ccccc1)[C@H](OC(=O)c1ccccc1)C(O)COC(=O)c1ccccc1)n1cc(C)c(=O)[nH]c1=O` (stereo partly specified), the total growth inhibition concentration (TGI) in experiment [1] was > 100 µM; in experiment [2] it was > 100 µM; in [3] it was > 100 µM; in experiment [4], 82.4 µM; in experiment [5], 60.2 µM; in [6], > 100 µM. The TGI in experiment [7] is > 100 µM; in [8], > 100 µM; in experiment [9], > 100 µM; in experiment [10] it was 73.8 µM; in experiment [11] it was > 100 µM.

`Nc1nc(=O)n(C2OC(CO)C(O)C2O)c2ncc(-c3ccc(-c4ccccc4)cc3)nc12` (stereo unspecified): the TGI in [1], in experiment [2], in experiment [3], in experiment [4], in experiment [5] and in experiment [6] was > 100 µM throughout. In addition, the TGI in [7], in experiment [8], in experiment [9], in [10] and in [11] was > 100 µM throughout.

Take `COc1ccc2c(c1)CCN1CCCc3ccccc3C21` (stereo unspecified): the concentration for total growth inhibition (TGI) in [1], in experiment [2], in [3], in experiment [4], in experiment [5] and in experiment [6] was > 100 µM in each case. Moreover, the total growth inhibition concentration (TGI) is > 100 µM in experiment [7]; 52.5 µM in experiment [8]; > 100 µM in experiment [9]; 78.5 µM in experiment [10]; > 100 µM in [11].

As for `Cc1cc(O)cc(O)c1C(=O)O[C@]1(C)C(=O)C=C2C=C(/C=C/C(=O)O)OC=C2C1=O`, the concentration for total growth inhibition (TGI) in experiment [1], in experiment [2], in [3], in experiment [4], in experiment [5] and in [6] was > 100 µM throughout. The concentration for total growth inhibition (TGI) in experiment [7], in experiment [8], in experiment [9], in experiment [10] and in [11] was > 100 µM in each case.

In the case of `Cc1cc2oc(C)c(S(=O)(=O)NC(=O)Nc3ccc(Cl)cc3)c(=O)c2c(=O)o1`, the TGI in experiment [1], in [2], in [3], in [4], in experiment [5] and in experiment [6] was > 100 µM throughout. The TGI in experiment [7], in [8], in experiment [9], in experiment [10] and in [11] was > 100 µM in each case.

Turning to `N=c1oc2ccccc2cc1-c1nc2ccccc2c(=O)[nH]1`, the TGI is > 100 µM in experiment [1]; 84.3 µM in experiment [2]; > 100 µM in [3]; > 100 µM in experiment [4]; > 100 µM in experiment [5]; > 100 µM in [6]. Further, the TGI is > 100 µM in experiment [7]; > 100 µM in [8]; > 100 µM in experiment [9]; 25.3 µM in [10]; > 100 µM in [11].

As to `COc1c(C)c(C/C=C(\C)CC/C=C(\C)CC/C=C(\C)CCC=C(C)C)c(OC)c2ccccc12`, the TGI in [1], in [2], in experiment [3], in [4], in experiment [5] and in experiment [6] was > 100 µM in each case. The TGI in experiment [7], in [8], in experiment [9], in experiment [10] and in experiment [11] was > 100 µM in each case.
